# Experimental data from a melting point compilation (Tetko et al.; mined from patent text by program, amines drawn as free bases though some values may be those of a salt).
row,SMILES,melting point [°C]
1,CC1OC(n2c(Cl)c(C#N)c3cc(Cl)c(Cl)cc32)C(O)C1O (stereo not drawn),227 to 228
2,CN1CCN(S(=O)(=O)c2ccc(O)cc2)CC1,225 to 227
3,CNC(=O)c1ccc(Nc2nc(O[C@H]3CCOC3)c3c(-c4ccc5nc(C)oc5c4)c[nH]c3n2)c(C)c1,273 to 274
4,O=C(c1cocc1C(=O)N1CCCCC1)N1CCCCC1,180 to 183
5,CC(C)OC(=O)C1CCCN1S(=O)(=O)c1ccc(N2CCC(NCC(O)COc3cccc4[nH]c(=O)[nH]c34)CC2)cc1 (stereo not drawn),74 to 83
6,O=[N+]([O-])c1ccc(Oc2cc(Cl)ncn2)cc1,125 to 127
7,COc1ccc(C(=O)c2ccc(-n3ccnc3)cc2)cc1OC,149 to 151
8,CS(=O)(=O)Nc1ccncc1-c1ccc2cnc(Nc3ccc(N4CCOCC4)cc3)nn12,178 to 180
9,CC(=O)OCCNC(=O)NCc1ccc(-c2csc(N=C(N)N)n2)o1,200 to 202
10,COc1ccc(Cn2c(=O)c(Cl)nc3ccc4ccccc4c32)c(OC)c1,186
11,CC1(C)CCC(C)(C)c2cc(OCc3ccc(CO)cc3)ccc21,108 to 109
12,CC=Cc1cnc(C2=NC(C)(C(C)C)C(=O)N2)c(C(=O)O)c1 (stereo not drawn),175 to 176
13,CN(CCOc1ccc(CCCN2C(=O)COC2=O)cc1F)c1ccccn1,124 to 125
14,COCc1ccc(C(=O)O)c2ccccc12,133 to 134
15,C=C(C)CN1Cc2cc(Cl)cc3[nH]c(=S)n(c23)[C@@H](C)C1,171
16,CCCCCCOc1cccc(N2CC(=O)NC(=O)N2)c1,161 to 163
17,COc1ccccc1Sc1ccc2c(c1)CC[C@H]1NC(=O)CC[C@]21C,176 to 179
18,O=Cc1cccn1C(=O)c1ccccc1[N+](=O)[O-],95 to 99
19,CC(CN1CCCC1)N1c2ccccc2Sc2ccc(C(=O)NCC3CCCCC3)cc21 (racemic),120
20,CCOC(=O)C1=C(CO)NC(SC)=NC1c1ccccc1SC (stereo not drawn),151 to 153
21,O=C1CCN(Cc2ccccc2OC(F)F)CC1C(c1ccc(F)cc1)c1ccc(F)cc1 (stereo not drawn),83 to 84
22,CN1CCN(c2ccc(Nc3ncc4ccc(-c5cccc(CN(C)S(C)(=O)=O)c5)n4n3)cc2)CC1,229 to 230
23,Cc1cnc2c(NC(=O)c3c(Cl)cccc3Cl)ccc(Cl)c2c1Cl,222 to 233
24,Clc1cccc(Nc2ncnc3[nH]c(-c4ccccc4)cc23)c1,285 to 286
25,COc1ccc(C2(O)CCC3CN(Cc4ccccc4)CCC3C2)cc1 (stereo not drawn),38 to 40

row,SMILES,melting point [°C]
1,CCOC(=O)c1cc(-c2ccccc2)nc2c([N+](=O)[O-])cccc12,138 to 140
2,CSc1ncc(Cl)cc1C#N,147 to 149
3,Nn1ccc(C(=O)c2ccccc2)c1,82 to 83
4,O=C(c1ccccc1F)c1cc2c(c(Cl)c1Cl)OC(CO)C2 (stereo not drawn),148 to 150
5,Cc1ccc(CCc2ccccc2Br)c(NC=O)c1,167 to 169
6,CCCCn1c(N)nc2ccc(C3CCc4cncn43)cc21 (stereo not drawn),196
7,CCCCCC(CC(=O)Nc1cc(C(=O)NC(=O)C(C)C)ccc1C(C)(C)C)c1ccc(OC)cc1OC (stereo not drawn),157 to 159
8,C=CC(=O)NCNC(=O)CCS(=O)(=O)Cl,192
9,COc1cc(OC)c2c(=O)[nH]c(-c3cc(C)c(OC)c(C)c3)cc2n1,262 to 263
10,O=C(O)c1ccc(F)s1,140 to 142
11,O=Cc1cn(Cc2ccc(OCc3ccccc3)cc2)cc1-c1ccccc1,100 to 101
12,COc1ccc(COc2ccc(-c3ccc(C(=O)O)c(=O)[nH]3)cc2OC)cc1OC,217 to 218
13,CCC(=O)OCC(OC(=O)CC)C1OC(OC(=O)CC)C(OC(=O)CC)C1OC(=O)CC (stereo not drawn),74.5 to 75.5
14,CC1=CC(C)(C)Nc2cc3oc(=O)cc(C)c3cc21,270 to 274
15,COc1cc2ccc3c(OC)cccc3c2c(OC)c1OC,80 to 82
16,Cc1c(Br)c(=O)n(C2CCCC2)c2nc(Nc3ccc(N4CCNCC4)nc3)ncc12,290
17,Cn1nnnc1S(=O)(=O)CCCCS(=O)(=O)c1nnnn1C,192 to 194
18,CCOC(=O)C1=CCCCC1S(=O)(=O)Nn1cccc1C1CC1 (stereo not drawn),95 to 96
19,COc1ccc(C2=NN(CC(=O)c3ccccc3OC)C(=O)[C@H]3CCCC[C@@H]23)cc1OC (relative stereo),93 to 96
20,CSc1nnc(COc2cc(C(C)(C)C)c(O)c(C(C)(C)C)c2)s1,128 to 130
21,O=C(O)c1cccc(C(=O)c2cc(Cl)cc(C(=O)c3ccccc3O)c2O)c1O,127 to 130
22,CC(C)(C)OC(=O)Nc1cc(N2CCOCC2)cc(C(F)(F)F)c1,146 to 148
23,CN1CCC(c2cn(S(=O)(=O)c3ccccc3)c3ccc(OS(=O)(=O)c4ccccc4)cc23)CC1,123 to 127
24,CCc1c(C(=O)OC(C)C)ncc2[nH]c3ccc(NC(C)=S)cc3c12,158 to 160
25,O=c1oc(=O)n(CCc2ccccc2)c2ncccc12,147 to 149

row,SMILES,melting point [°C]
1,c1ccc2c(c1)c1ccccc1n2-c1ccc(-n2ccnc2-c2nccn2-c2ccc(-n3c4ccccc4c4ccccc43)cc2)cc1,270 to 274
2,CCCCC(CC)COC(=O)CC(C(=O)OCC(CC)CCCC)S(=O)(=O)O (stereo not drawn),70
3,CNC1=Nc2sc(Cl)cc2C(c2ccccc2)=NC1,247 to 250
4,Cc1c(-c2ccccc2)[nH]c(=O)n1C1CCN(Cc2cccc3c2OCO3)CC1,244 to 245
5,Cc1ccccc1C(Nc1ccncc1)c1ccccc1 (stereo not drawn),141 to 143
6,CC(C)N1C(=O)C(C)(C)N=C(c2ccccc2Cl)c2cc([N+](=O)[O-])ccc21,169 to 170
7,O=[N+]([O-])c1cnn(-c2c(Cl)cc(C(F)(F)F)cc2Cl)c1Br,96
8,O=c1nc(-c2ccccc2)c2cc([N+](=O)[O-])ccc2n1Cc1ccccn1,175 to 176
9,COc1ccc2ccc3nc(C(=O)O)cn3c2c1,272 to 273
10,O=C(O)CCCCCCCCC1CO1 (stereo not drawn),48
11,CN(C)c1ccc2c(c1)Sc1cc(OC(=O)c3ccccc3)ccc1N2C(=O)c1ccccc1,194 to 200
12,NC(=O)c1cccc(OCCCCCn2cnc3c(Cl)ncnc32)c1,132 to 133
13,N#Cc1cnc2cc(-c3ccc(C=O)cc3)sc2c1Nc1ccc(Oc2ccccc2)cc1,230 to 232
14,O[C@@H](COc1cccc(-c2noc3ccsc23)c1)CN1CCN(c2ccccc2F)CC1,96 to 99
15,COc1cc(NC2=NCC(c3ccccc3)O2)ccc1-c1cnco1 (stereo not drawn),130 to 132
16,NS(=O)(=O)c1ccc(N2CCN(CC[C@H]3OCCc4ccccc43)CC2)cc1,189 to 190
17,NC(=O)NCCC(F)=C(F)F,86 to 88
18,Brc1cc(N2CCOCC2)ccc1/C=C/c1cc(/C=C/c2ccc3cc[nH]c3c2)[nH]n1,143 to 148
19,COc1cc(OC)cc(-c2ncn(CCO)c2-c2ccc(OC)c(F)c2)c1,202 to 204
20,CC1(C)COc2ccc(C#N)cc21,70 to 71
21,Cc1nc(-c2ccc(OCC(C)(C)C)c(I)c2)sc1C(=O)O,194 to 195
22,COC(=O)C1Cc2c([nH]c3ccccc23)C(c2ccc(O)cc2)N1 (stereo not drawn),233 to 235
23,CC(C)=CCOc1ccc2c(=O)c(C)c(-c3ccccc3)oc2c1C(=O)C=Cc1cccs1,158 to 160
24,CC[C@@H](c1ccccc1)N(Cc1ccc(C(=O)O)cc1OC)S(=O)(=O)c1ccc(Cl)cc1,176 to 178
25,FC(F)c1cc(Cl)nc2c1c(I)nn2C1CCCCO1 (stereo not drawn),157

row,SMILES,melting point [°C]
1,O=c1ccn(C2CC(O)C(CNC(c3ccccc3)(c3ccccc3)c3ccccc3Cl)O2)c(=O)[nH]1 (stereo not drawn),129 to 131
2,CC(C)(CNC=O)c1ccc2nc(C3CCNCC3)[nH]c2c1,234 to 237
3,CCc1nc2c(cnn2CC)c(NC2CCOCC2)c1CNC(=O)c1cccc(C(=O)NCc2ccc(Cl)c(-c3cccc(CN4CC5CC4CN5)c3)c2)c1 (stereo not drawn),145 to 149
4,CC1(C)CC(=O)C(c2c[nH]c3ccccc23)C(=O)C1,173
5,CS(=O)(=O)c1ccc(-c2coc(=O)n2-c2ccc(Br)cc2)cc1,217 to 219
6,CN1c2ccc(F)cc2C(c2ccccc2)=NCC1CCl (stereo not drawn),173 to 188
7,COc1nc(Cl)cnc1NS(=O)(=O)c1cccc(F)c1Cl,159 to 160
8,Cn1cncc1C(O)c1ccc2c(c1)c(-c1cccc(Cl)c1)cc(=O)n2C (stereo not drawn),167
9,FC(F)(F)c1cc(CCC2OCCNC2c2ccccc2)cc(C(F)(F)F)c1 (stereo not drawn),114 to 116
10,CCOC(=O)C=Cc1ccc(Oc2c(-c3ccc(OC)cc3)ccc3cc(OC)ccc23)cc1,94 to 97
11,Cc1nc2cnc(N3CCN(CCCC(=O)c4ccc(F)cc4)CC3)cc2[nH]1,180 to 183
12,COC1C(OC(=O)c2ccccc2)C=C(C)C(=O)CC1(C)C (stereo not drawn),97 to 98
13,CCCC(=O)O[C@H]1[C@H](OCc2ccccc2)[C@@H](OCc2ccccc2)[C@H](OCc2ccccc2)[C@@H](OCc2ccccc2)[C@]1(O)CCC (racemic),143
14,Cc1cncc(C)c1-c1c(C)cc(C=Cc2ccc(C(C#N)C#N)cc2)cc1C,58 to 60
15,Cc1cc(-c2cc(C(F)(F)F)n3ncc(C(=O)Nc4nc(C)c(S(=O)(=O)NC(C)(C)CO)s4)c3n2)ccc1C(F)(F)F,272
16,Cc1ccccc1C(=O)c1c(C)nn(C)c1O,82 to 83
17,CCc1c(OC)cc(/C=C(\SC)S(C)=O)cc1OC (stereo not drawn),82 to 83
18,O=S(CCCCNC(P(=O)(O)O)P(=O)(O)O)c1ccccn1 (stereo not drawn),235 to 240
19,CCC(C)C(NC(=O)OCc1ccccc1)C(=O)NC(C(=O)Nc1n[nH]c(=S)s1)C(C)C (stereo not drawn),197 to 198
20,CC(C)(C)c1ccc(NC(=O)Nc2ccc(Oc3cc(NCc4ccccc4)ncn3)cc2)cc1,118 to 120
21,O=C1CCC(c2ccc(Cl)c(Cl)c2)O1 (stereo not drawn),54 to 55
22,CC(C)(C)OC(=O)N1CCN(c2ncccc2C=O)CC1,88 to 89
23,COc1cc(-c2csc(C#N)n2)cc(Cl)c1OC,147 to 149
